Tests used:
[1] = Solubility in RPMI 1640 medium, precipitation seen by bright field optical microscopy; settings: DMSO 1%
Procedure: The latter medium was selected, since we used it for the cellular assays. […] Then we monitored the formation of (not detectable in the previous experiment) aggregated species in prodrug solutions that appeared transparent (concentrations < 50 µM) by using dynamic light scattering. […]
Solubility of drugs in aqueous buffers
Observing prodrug precipitation by using bright field optical microscopy […]
glutamine (1 %), and penicillin/streptomycin (1 %) was filled into 96-well microtiter plates (100 µL for each well) and compounds in DMSO stock solution (1 µL) were added. Each well was monitored by using bright field optical microscopy both immediately after […]

A2780 cells [2] = experiment: Generation of nitric oxide (DAF-FM diacetate), A2780; assay type: cell-based, human; settings: 2 h
Procedure: with CO2 (5%) at 37 °C for 2 h. Next, the cells were detached from the culture dish using trypsin/EDTA (0.025%/0.01%, v/v, 200 µL). The cells were re-suspended in RPMI 1640 medium containing 5% FBS, 1% L-glutamine and 1% penicillin/streptomycin (200 µL).
Finally, the fluorescence of live cells (λex = 488 nm, λem = 530 nm) in the suspensions was determined by using flow cytometry (Figure 4C).
Figure S61. Representative flow cytometric histograms used for setting up Figure 4C.
Generation of nitric oxide in A2780 cells
A2780 cells were seeded into 96 well culture plates at the same cell concentration and in the same medium as applied for the assay for monitoring mROS described above. On the day of the experiment, the cells were washed twice with DPBS buffer and the medium was replaced with HBSS (100 μL). […]
(§1) The cells were re-suspended in RPMI 1640 medium containing 5% FBS, 1% L-glutamine and 1% penicillin/streptomycin (100 µL). Finally, the fluorescence of live cells (λex = 488 nm, λem = 530 nm) in the suspensions was determined by using flow cytometry (Figure […]
Figure S62. Fluorescence of DAF-FM diacetate-loaded A2780 cells treated either with 2c or the carrier. *: p<0.05, Student’s t test. […]

SBLF9 fibroblasts = experiment: Mitochondrial ROS imaging (MitoSOX), SBLF9 fibroblasts; assay type: cell-based; settings: 5 µM
Procedure: as §1
Figure S62. Fluorescence of DAF-FM diacetate-loaded A2780 cells treated either with 2c or the carrier. *: p<0.05, Student’s t test.
Effect of prodrug 2c on mitochondrial reactive oxygen species in representative cancer (A2780) and normal cells (SBLF9 fibroblasts) (Figure 6)
A2780 cells were seeded in of RPMI 1640 medium (500 µL) supplemented with 5% FBS, 1% L-glutamine, and 1% penicillin/streptomycin on a 35 mm imaging dish (µ- Dish 35 mm, high, ibidi GmbH, Germany) at a cell density of 80 cells/µL and allowed to attach to the surface of the dish for overnight. […]
The fluorescence images were taken with a Zeiss Axio Vert.A1 fluorescence microscope […]
4x10^4 cells per well. […] Cell viability was assessed by quantification of ATP (CellTiter Glo®, Promega) 48 hours after drug application.
Luminescence was measured on a Tecan Infinite F200 Microplate Reader. Viability was calculated as % of solvent (DMSO) treated control. […]

A2780 cells [3] = system: A2780 cells; design: method as in PMID 30035345; settings: relative to 4-(N-ferrocenyl-N-benzylaminocarbonyloxymethyl)-phenylboronic acid pinacol ester; cited from earlier work

Compound | Solubility ([1]; 48 h incubation in RPMI 1640, FBS 5%, first signs of precipitation) [µM] | first signs of precipitation ([1]; immediately after dilution in RPMI 1640, FBS 5%) [µM] | level of NO vs carrier (A2780 cells [2]) | mROS level in normal cells (SBLF9 fibroblasts) | efficacy of cellular uptake relative to reference NAAF prodrug (A2780 cells [3])
CC1(C)OB(c2ccc(COC(=O)N(Cc3cn(Cc4ccc(Cn5cc(Cc6ccccc6)nn5)cc4)nn3)[c-]3cccc3)cc2)OC1(C)C.[Fe+2].c1cc[cH-]c1 [2c] | 30 | 30 | higher than that in A2780 cells treated with DMSO (carrier) only | only a slight increase of mROS level | –
CCOC(=O)CCCCCn1cc(CN(C(=O)OCc2ccc(B3OC(C)(C)C(C)(C)O3)cc2)[c-]2cccc2)nn1.[Fe+2].c1cc[cH-]c1 [compound 1] | – | – | – | – | ca. 50%

Reference: publication PMC8750417, “Intracellular Amplifiers of Reactive Oxygen Species Affecting Mitochondria as Radiosensitizers” (Cancers, 2021)
